From patent US12233161B1, “Lipids and lipid nanoparticle formulations” (LONGUIDE BIOPHARMA CORPORATION, priority 2024, dated 2025)
Values belong to the compound of their own block, whether it stands above or below them.

Key:
mice = experiment: In vivo delivery of FLuc-mRNA lipid nanoparticles in mice, in vivo imaging (IVIS)
Summary of the method: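 Mice (n=3) received about 75 μL FLuc-mRNA LNP per mouse intramuscularly (rectus femoris), intravenously (tail vein), intraperitoneally or subcutaneously (back). After injection, D-luciferin (200 μL, 15 mg/mL) was given i.p. 10-15 min before IVIS imaging.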

[1] = Particle size and PDI of nucleic acid lipid nanoparticle preparations by dynamic light scattering; format: physicochemical
Experimental: The 7.5 μL nucleic acid lipid nanoparticle solution (containing approximately 0.04 mg/mL mRNA) was taken and added with 200 μL ultrapure water, mixed by gentle blowing using a pipette tip, and the particle size of the nanopreparation was detected by dynamic lightscattering (DLS) using a Malvern Dynamic Light Scattering Instrument (Malvern Instruments Ltd., ZEN3700, UK).
27.5 μL nucleic acid lipid nanoparticle solution (containing about 0.04 mg/mL mRNA) was taken and added with 200 μL ultrapure water. A pipette tip was used to gently blow the sample and mix well. The particle size of the nanopreparation was detected by Malvern Dynamic Light Scattering Instrument (Malvern Instruments Ltd., ZEN3700, UK). After the detection, the sample was recovered to an EP tube, and 600 μL of ultrapure water was added, gently blown with a pipette tip, and the potential of the nanopreparation was measured by a Malvern particle size meter.

[2] = DMG-PEG2000:DSPC:Chol:Lipid 1.40:11.15:38.95:48.50, N/P 45, mRNA LNP
[3] = DMG-PEG2000:DSPC:Chol:Lipid 1.77:14.07:49.16:35.00, N/P 45, mRNA LNP
[4] = IM, DMG-PEG2000:DSPC:Chol:compound 1.40:11.15:38.95:48.50, N/P 20, Fluc-mRNA
[5] = IV, organ not given, DMG-PEG2000:DSPC:Chol:compound 1.40:11.15:38.95:48.50, N/P 20, Fluc-mRNA
[6] = DMG-PEG2000:DSPC:Chol:compound 1.40:11.15:38.95:48.50, N/P 20
[7] = DMG-PEG2000:DSPC:Chol:Lipid 1.40:11.15:38.95:48.50, N/P 30, IM, whole body scan
[8] = DMG-PEG2000:DSPC:Chol:Lipid 1.40:11.15:38.95:48.50, N/P 30, IV, body (whole body scan)
[9] = DMG-PEG2000:DSPC:Chol:Lipid 1.40:11.15:38.95:48.50, N/P 30, mRNA LNP
[10] = DMG-PEG2000:DSPC:Chol:Lipid 1.40:11.15:38.95:48.50, N/P 18, mRNA LNP
[11] = DMG-PEG2000:DSPC:Chol:Lipid 1.00:11.50:22.50:65.00, N/P 65, IV, liver
[12] = DMG-PEG2000:DSPC:Chol:Lipid 1.00:11.50:22.50:65.00, N/P 65, IV, lung
[13] = DMG-PEG2000:DSPC:Chol:Lipid 1.00:11.50:22.50:65.00, N/P 65, IV, spleen
[14] = DMG-PEG2000:DSPC:Chol:Lipid 2.50:11.50:51.00:35.00, N/P 50, IV, liver
[15] = DMG-PEG2000:DSPC:Chol:Lipid 2.50:11.50:51.00:35.00, N/P 50, IV, lung
[16] = DMG-PEG2000:DSPC:Chol:Lipid 2.50:11.50:51.00:35.00, N/P 50, IV, spleen
[17] = DMG-PEG2000:DSPC:Chol:Lipid 1.00:11.50:22.50:65.00, N/P 65, mRNA LNP
[18] = DMG-PEG2000:DSPC:Chol:Lipid 1.00:16.00:48.00:35.00, N/P 35, mRNA LNP
[19] = DMG-PEG2000:DSPC:Chol:Lipid 1.00:16.00:63.00:20.00, N/P 35, mRNA LNP
[20] = DMG-PEG2000:DSPC:Chol:Lipid 2.50:11.50:51.00:35.00, N/P 50, mRNA LNP
[21] = DMG-PEG2000:DSPC:Chol:compound 1.00:10.00:33.00:56.00, N/P 42
[22] = DMG-PEG2000:DSPC:Chol:compound 1.40:11.15:38.95:48.50, N/P 30
[23] = DMG-PEG2000:DSPC:Chol:Lipid 1.40:11.15:38.95:48.50, N/P 16.7, mRNA LNP

PDI [1, 2]: 0.16 ± 0.02
Particle size [1, 2]: 148.37 ± 1.40 nm
PDI [1, 3]: 0.14 ± 0.01
Particle size [1, 3]: 121.47 ± 0.72 nm
Compound: CCCCCCCCCCCCNC(=O)C(O)CN(CCCN(CC(O)C(=O)NCCCCCCCCCCCC)CC(O)C(=O)NCCCCCCCCCCCC)CCCN(CC(O)C(=O)NCCCCCCCCCCCC)CC(O)C(=O)NCCCCCCCCCCCC (stereo not drawn) [Compound L0267]
IVIS (mice; DMG-PEG2000:DSPC:Chol:Lipid 1.40:11.15:38.95:48.50, N/P 45, IV, whole body scan): 3.89 × 10^5
IVIS (mice; DMG-PEG2000:DSPC:Chol:Lipid 1.77:14.07:49.16:35.00, N/P 45, IM, whole body scan): 1.05 × 10^6

PDI [1, 6]: 0.12
Particle size (nm) [1, 6]: 94.88 nm
Compound: CCCCCCCCCCNC(=O)C(O)CN(CCOCCOCCN(CC(O)C(=O)NCCCCCCCCCC)CC(O)C(=O)NCCCCCCCCCC)CC(O)C(=O)NCCCCCCCCCC (stereo not drawn) [Compound L0325]
IVIS (mice; [4]): 5.09E+06
IVIS (mice; [5]): 1.95E+07

PDI [1, 6]: 0.12
Particle size (nm) [1, 6]: 172.73 nm
Compound: CCCCCCCCCCCCOC(=O)C(O)CN(CCOCCN(CC(O)C(=O)OCCCCCCCCCCCC)CC(O)C(=O)OCCCCCCCCCCCC)CC(O)C(=O)OCCCCCCCCCCCC (stereo not drawn) [Compound L0312]
IVIS (mice; [4]): 9.71E+05
IVIS (mice; [5]): 5.52E+05

PDI [1, 9]: 0.16 ± 0.04
Particle size [1, 9]: 136.97 ± 0.92 nm
Compound: CCCCCCC(CCCCCC)C(=O)OCCCCCCOC(=O)C(O)CN(C)CCN(C)CCN(C)CC(O)C(=O)OCCCCCCOC(=O)C(CCCCCC)CCCCCC (stereo not drawn) [Compound L0286]
IVIS (mice; [7]): 3.05 × 10^3
IVIS (mice; [8]): 4.41 × 10^6

PDI [1, 6]: 0.16
Particle size (nm) [1, 6]: 81.09 nm
Compound: CCCCCCCC/C=C\CCCCCCCCNC(=O)C(O)CN(C)CCN(C)CCN(C)CC(O)C(=O)NCCCCCCCC/C=C\CCCCCCCC (stereo not drawn) [Compound L0296]
IVIS (mice; [4]): 2.80E+05
IVIS (mice; [5]): 2.97E+05

PDI [1, 6]: 0.25
Particle size (nm) [1, 6]: 178.57 nm
Compound: CCCCCCCCCCCCNC(=O)C(O)CN(CCCCCN(CC(O)C(=O)NCCCCCCCCCCCC)CC(O)C(=O)NCCCCCCCCCCCC)CC(O)C(=O)NCCCCCCCCCCCC (stereo not drawn) [Compound L0307]
IVIS (mice; [4]): 1.43E+05
IVIS (mice; [5]): 4.29E+05

PDI [1, 10]: 0.23 ± 0.01
Particle size [1, 10]: 91.75 ± 0.80 nm
Compound: CCCCCCCCCCCCNC(=O)C(O)CN(C)CCN(C)CCN(C)CC(O)C(=O)NCCCCCCCCCCCC (stereo not drawn) [Compound L0278]
IVIS (mice; DMG-PEG2000:DSPC:Chol:Lipid 1.40:11.15:38.95:48.50, N/P 18, IM, whole body scan): 3.77 × 10^5
IVIS (mice; DMG-PEG2000:DSPC:Chol:Lipid 1.40:11.15:38.95:48.50, N/P 18, IV, whole body scan): 2.49 × 10^5

PDI [1, 17]: 0.10 ± 0.02
Particle size [1, 17]: 87.42 ± 0.32 nm
PDI [1, 18]: 0.11 ± 0.02
Particle size [1, 18]: 115.10 ± 0.87 nm
PDI [1, 19]: 0.11 ± 0.02
Particle size [1, 19]: 135.03 ± 0.67 nm
PDI [1, 20]: 0.12 ± 0.01
Particle size [1, 20]: 122.50 ± 1.15 nm
PDI [1, 21]: 0.08
Particle size (nm) [1, 21]: 101.60 nm
Compound: CCCCCCCCCCNC(=O)C(O)CN(CCCN(C)CCCN(CC(O)C(=O)NCCCCCCCCCC)CC(O)C(=O)NCCCCCCCCCC)CC(O)C(=O)NCCCCCCCCCC (stereo not drawn) [Compound L0265]
IVIS (mice; DMG-PEG2000:DSPC:Chol:Lipid 1.00:11.50:22.50:65.00, N/P 65, IV, body): 1.59 × 10^8
% of organ targeting (mice; [11]): 0.76%
IVIS (mice; [11]): 7.76 × 10^6
% of organ targeting (mice; [12]): 97.75%
IVIS (mice; [12]): 1.00 × 10^9
% of organ targeting (mice; [13]): 1.50%
IVIS (mice; [13]): 1.53 × 10^7
IVIS (mice; DMG-PEG2000:DSPC:Chol:Lipid 1.00:16.00:48.00:35.00, N/P 35, IM, whole body scan): 6.15 × 10^7
IVIS (mice; DMG-PEG2000:DSPC:Chol:Lipid 1.00:16.00:63.00:20.00, N/P 35, IM, whole body scan): 6.47 × 10^6
IVIS (mice; DMG-PEG2000:DSPC:Chol:Lipid 2.50:11.50:51.00:35.00, N/P 50, IV, body): 4.45 × 10^7
% of organ targeting (mice; [14]): 21.35%
IVIS (mice; [14]): 6.87 × 10^6
% of organ targeting (mice; [15]): 20.23%
IVIS (mice; [15]): 6.51 × 10^6
% of organ targeting (mice; [16]): 58.42%
IVIS (mice; [16]): 1.88 × 10^7
IVIS (mice; IV, body, DMG-PEG2000:DSPC:Chol:compound 1.00:10.00:33.00:56.00, N/P 42, Fluc-mRNA): 2.04E+08
% of organ targeting (mice; IV, liver, DMG-PEG2000:DSPC:Chol:compound 1.00:10.00:33.00:56.00, N/P 42): 0.55%
IVIS (mice; IV, liver, DMG-PEG2000:DSPC:Chol:compound 1.00:10.00:33.00:56.00, N/P 42, Fluc-mRNA): 2.18E+06
% of organ targeting (mice; IV, lung, DMG-PEG2000:DSPC:Chol:compound 1.00:10.00:33.00:56.00, N/P 42): 98.43%
IVIS (mice; IV, lung, DMG-PEG2000:DSPC:Chol:compound 1.00:10.00:33.00:56.00, N/P 42, Fluc-mRNA): 3.94E+08
% of organ targeting (mice; IV, spleen, DMG-PEG2000:DSPC:Chol:compound 1.00:10.00:33.00:56.00, N/P 42): 1.03%
IVIS (mice; IV, spleen, DMG-PEG2000:DSPC:Chol:compound 1.00:10.00:33.00:56.00, N/P 42, Fluc-mRNA): 4.11E+06
in vivo delivery efficiency as compared to the benchmark compound SM102 (mice; certain formulations, Table 2): superior in vivo delivery efficiency
tissue-targeting specificity (lung vs spleen depending on molar percentage of compound) (mice; certain formulations, Table 2): strong tissue-targeting specificity

PDI [1, 22]: 0.16
Particle size (nm) [1, 22]: 111.00 nm
Compound: CCCCCCCCCCCCNC(=O)C(O)CN(C)CCCN(C)CCCN(C)CC(O)C(=O)NCCCCCCCCCCCC (stereo not drawn) [Compound L0311]
IVIS (mice; IM, DMG-PEG2000:DSPC:Chol:compound 1.40:11.15:38.95:48.50, N/P 30, Fluc-mRNA): 2.23E+05
IVIS (mice; IV, organ not given, DMG-PEG2000:DSPC:Chol:compound 1.40:11.15:38.95:48.50, N/P 30, Fluc-mRNA): 4.57E+05

PDI [1, 23]: 0.09 ± 0.02
Particle size [1, 23]: 137.20 ± 0.61 nm
Compound: CCCCCCOCOCCCCCCOC(=O)C(O)CN(CCN(C)CCN(CC(O)C(=O)OCCCCCCOCOCCCCCC)CC(O)C(=O)OCCCCCCOCOCCCCCC)CC(O)C(=O)OCCCCCCOCOCCCCCC (stereo not drawn) [Compound L0272]
IVIS (mice; DMG-PEG2000:DSPC:Chol:Lipid 1.40:11.15:38.95:48.50, N/P 16.7, IM, whole body scan): 9.96 × 10^7
IVIS (mice; DMG-PEG2000:DSPC:Chol:Lipid 1.40:11.15:38.95:48.50, N/P 16.7, IV, whole body scan): 9.45 × 10^8
in vivo delivery efficiency as compared to the benchmark compound SM102 (mice; certain formulations, Table 2): superior in vivo delivery efficiency

PDI [1, 9]: 0.23 ± 0.02
Particle size [1, 9]: 150.80 ± 1.97 nm
Compound: CCCCCCOCOCCCCCCOC(=O)C(O)CN(C)CCN(C)CCN(C)CC(O)C(=O)OCCCCCCOCOCCCCCC (stereo not drawn) [Compound L0279]
IVIS (mice; [7]): 2.87 × 10^5
IVIS (mice; [8]): 5.19 × 10^5
